The results in this text go back to patent publication US9835633B1, “Compositions and methods for identifying agents for treating apoE-related diseases” (The J. David Gladstone Institutes, priority 2015, dated 2017).

The subject of this experiment is NSE-apoE4 primary neurons. Nature of the experiment: apoE fragmentation in NSE-apoE4 primary neurons (western blot). In kind it is cell-based, mouse. Particulars: NSE-apoE4 primary neurons treated with compound changing Golgi pH or calcium levels. As to the method: To confirm that PCSK1 and PCSK2 actually contribute to neuronal cleavage of apoE observed in NSE-apoE4 primary neurons, NSE-apoE4 primary neurons were treated with lentivirus encoding either PCSK1 shRNA or PCSK2 shRNA to decrease the endogenous PCSK1 or PCSK2 levels.
Activity of both PCSK1 and PCSK2 is pH and calcium dependent. The optimum pH for PCSK1 and PCSK2 was acidic (pH 6.0 for PCSK1, pH 5.0 for PCSK2). Their activities were enriched in Golgi/trans-Golgi in neurons, which have an acidic environment. Based on this knowledge, it was hypothesized that changing the Golgi pH or calcium levels in neurons would affect PCSK1/PCSK2 activity and further regulate apoE fragmentation. To test this idea, NSE-apoE4 primary neurons were treated with Bafilomycin A, a compound that can increase Golgi pH, or Thapsigargin/2-APB, which can affect the calcium concentration in different cellular compartments.
PCSK1/PCSK2 generated similar apoE fragmentation patterns in N2A-apoE4 cells compared to NSE-apoE4 primary neurons. To determine whether PCSK1/PCSK2-generated apoE fragments are the same as those generated endogenously, lysates from N2A-apoE4 cells overexpressing either PCSK1 or PCSK2, lysates from NSE-apoE4 primary neurons, and the mixture of these two lysates, were tested. ApoE fragmentation was detected by western blot.

Regarding `NCCOB(c1ccccc1)c1ccccc1` [2-APB], the “apoE fragmentation after compound treatment” value was “decrease of apoE fragmentation”.

Regarding `CO/C1=C\C(C)=C\[C@@H](C)[C@@H](O)[C@@H](C)C/C(C)=C/C=C/[C@H](OC)[C@@H]([C@@H](C)[C@@H](O)[C@H](C)[C@@]2(O)C[C@@H](O)[C@H](C)[C@@H](C(C)C)O2)OC1=O` [Bafilomycin A], the “apoE fragmentation after compound treatment” value is “decrease of apoE fragmentation”. The entry for `C/C=C(/C)C(=O)O[C@H]1C(C)=C2[C@H]([C@@H]1OC(=O)CCCCCCC)[C@@](C)(OC(C)=O)C[C@H](OC(=O)CCC)[C@@]1(O)[C@H]2OC(=O)[C@@]1(C)O` [Thapsigargin] is “decrease of apoE fragmentation”.
